Test results reported in US20260138958A1, “SUBSTITUTED N-PHENYLURACILS AND SALTS THEREOF, AND USE THEREOF AS HERBICIDAL ACTIVE SUBSTANCES” (Bayer Aktiengesellschaft, priority 2022, published 2026).

Columns and labels:
Type in all cases: in vivo
[1] = test system: Abutilon theophrasti (ABUTH); test: Post-emergence herbicidal action, greenhouse pot test
Protocol: (§1) Seeds of monocotyledonous and dicotyledonous weeds and crop plants were placed in sandy loam in plastic or wood-fibre pots, covered with soil and cultivated in a greenhouse under controlled growth conditions. 2 to 3 weeks after sowing, the test plants were treated at the one-leaf stage. The compounds of the invention, formulated in the form of wettable powders (WP) or as emulsion concentrates (EC), were then sprayed onto the green parts of the plants as aqueous suspension or emulsion with addition of 0.5% additive at a water application rate of 600 l/ha (converted). After the test plants had been kept in the greenhouse under optimum growth conditions for about 3 weeks, the activity of the preparations was rated visually in comparison to untreated controls. For example, 100% activity=the plants have died, 0% activity=like control plants.

[2] = test system: Alopecurus myosuroides (ALOMY); test: as above
Protocol: as §1

[3] = test system: Amaranthus retroflexus (AMARE); test: as above
Protocol: as §1

[4] = test system: Bassia scoparia (KCHSC); test: as above
Protocol: as §1

[5] = test system: Digitaria sanguinalis (DIGSA); test: as above
Protocol: as §1

[6] = test system: Echinochloa crus-galli (ECHCG); test: as above
Protocol: as §1

[7] = test system: Lolium rigidum (LOLRI); test: as above
Protocol: as §1

[8] = test system: Pharbitis purpurea (PHBPU); test: as above
Protocol: as §1

[9] = test system: Polygonum convolvulus (POLCO); test: as above
Protocol: as §1

[10] = test system: Setaria viridis (SETVI); test: as above
Protocol: as §1

[11] = test system: Tripleurospermum inodorum (MATIN); test: as above
Protocol: as §1

[12] = test system: Veronica persica (VERPE); test: as above
Protocol: as §1

[13] = test system: Viola tricolor (VIOTR); test: as above
Protocol: as §1

[14] = test system: Triticum aestivum (TRZAS); test: Post-emergence crop plant compatibility, greenhouse pot test; details: crop plant, post-emergence, 1.25 g/ha
Protocol: as §1
The observed effects on selected crop plants are reported here in comparison to the untreated controls (values in %).

Structure (SMILES): Cn1c(C(F)(F)F)cc(=O)n(-c2cc(Oc3ccccc3OCC(=O)OCC3(F)CC3)c(Cl)cc2F)c1=O [I.7-6]
- Post-emergence effect at 1.25 g/ha against ABUTH in % [1]: 100%
- Post-emergence effect at 5 g/ha against ABUTH in % [1]: 100%
- Post-emergence effect at 20 g/ha against ABUTH in % [1]: 100%
- Post-emergence effect at 1.25 g/ha against ALOMY in % ([2]; 1.25 g/ha): 80%
- Post-emergence effect at 5 g/ha against ALOMY in % [2]: 100%
- Post-emergence effect at 20 g/ha against ALOMY in % [2]: 100%
- Post-emergence effect at 1.25 g/ha against AMARE in % [3]: 100%
- Post-emergence effect at 5 g/ha against AMARE in % [3]: 100%
- Post-emergence effect at 20 g/ha against AMARE in % [3]: 100%
- Post-emergence effect at 1.25 g/ha against KCHSC in % [4]: 100%
- Post-emergence effect at 5 g/ha against KCHSC in % [4]: 100%
- Post-emergence effect at 20 g/ha against KCHSC in % [4]: 100%
- Post-emergence effect at 1.25 g/ha against DIGSA in % ([5]; 1.25 g/ha): 100%
- Post-emergence effect at 5 g/ha against DIGSA in % [5]: 100%
- Post-emergence effect at 20 g/ha against DIGSA in % [5]: 100%
- Post-emergence effect at 5 g/ha against ECHCG in % [6]: 100%
- Post-emergence effect at 20 g/ha against ECHCG in % [6]: 100%
- Post-emergence effect at 20 g/ha against LOLRI in % [7]: 80%
- Post-emergence effect at 5 g/ha against PHBPU in % [8]: 100%
- Post-emergence effect at 20 g/ha against PHBPU in % [8]: 100%
- Post-emergence effect at 5 g/ha against POLCO in % [9]: 100%
- Post-emergence effect at 20 g/ha against POLCO in % [9]: 100%
- Post-emergence effect at 1.25 g/ha against SETVI in % [10]: 100%
- Post-emergence effect at 5 g/ha against SETVI in % [10]: 100%
- Post-emergence effect at 20 g/ha against SETVI in % [10]: 100%
- Post-emergence effect at 20 g/ha against MATIN in % [11]: 100%
- Post-emergence effect at 1.25 g/ha against VERPE in % [12]: 100%
- Post-emergence effect at 5 g/ha against VERPE in % [12]: 100%
- Post-emergence effect at 20 g/ha against VERPE in % [12]: 100%
- Post-emergence effect at 1.25 g/ha against VIOTR in % [13]: 100%
- Post-emergence effect at 5 g/ha against VIOTR in % [13]: 100%
- Post-emergence effect at 20 g/ha against VIOTR in % [13]: 100%
- Post-emergence effect at 1.25 g/ha against TRZAS in % [14]: 20%

Structure (SMILES): Cn1c(C(F)(F)F)cc(=O)n(-c2cc(Oc3ccccc3OCC(=O)OCC3CC34CCC4)c(Cl)cc2F)c1=O (stereo not shown) [I.7-19]
- Post-emergence effect at 1.25 g/ha against ABUTH in % [1]: 100%
- Post-emergence effect at 5 g/ha against ABUTH in % [1]: 100%
- Post-emergence effect at 20 g/ha against ABUTH in % [1]: 100%
- Post-emergence effect at 20 g/ha against ALOMY in % [2]: 100%
- Post-emergence effect at 1.25 g/ha against AMARE in % [3]: 100%
- Post-emergence effect at 5 g/ha against AMARE in % [3]: 100%
- Post-emergence effect at 20 g/ha against AMARE in % [3]: 100%
- Post-emergence effect at 1.25 g/ha against KCHSC in % [4]: 80%
- Post-emergence effect at 5 g/ha against KCHSC in % [4]: 80%
- Post-emergence effect at 20 g/ha against KCHSC in % [4]: 100%
- Post-emergence effect at 5 g/ha against DIGSA in % [5]: 100%
- Post-emergence effect at 20 g/ha against DIGSA in % [5]: 100%
- Post-emergence effect at 5 g/ha against ECHCG in % [6]: 100%
- Post-emergence effect at 20 g/ha against ECHCG in % [6]: 100%
- Post-emergence effect at 20 g/ha against LOLRI in % [7]: 80%
- Post-emergence effect at 1.25 g/ha against PHBPU in % [8]: 80%
- Post-emergence effect at 5 g/ha against PHBPU in % [8]: 100%
- Post-emergence effect at 20 g/ha against PHBPU in % [8]: 100%
- Post-emergence effect at 5 g/ha against POLCO in % [9]: 100%
- Post-emergence effect at 20 g/ha against POLCO in % [9]: 100%
- Post-emergence effect at 1.25 g/ha against SETVI in % [10]: 100%
- Post-emergence effect at 5 g/ha against SETVI in % [10]: 100%
- Post-emergence effect at 20 g/ha against SETVI in % [10]: 100%
- Post-emergence effect at 20 g/ha against MATIN in % [11]: 100%
- Post-emergence effect at 1.25 g/ha against VERPE in % [12]: 90%
- Post-emergence effect at 5 g/ha against VERPE in % [12]: 100%
- Post-emergence effect at 20 g/ha against VERPE in % [12]: 100%
- Post-emergence effect at 1.25 g/ha against VIOTR in % [13]: 100%
- Post-emergence effect at 5 g/ha against VIOTR in % [13]: 100%
- Post-emergence effect at 20 g/ha against VIOTR in % [13]: 100%
- Post-emergence effect at 1.25 g/ha against TRZAS in % [14]: 10%

Structure (SMILES): Cn1c(C(F)(F)F)cc(=O)n(-c2cc(Oc3ccccc3OCC(=O)OC(C#N)C3CC3)c(Cl)cc2F)c1=O (stereo not shown) [I.7-4]
- Post-emergence effect at 1.25 g/ha against ABUTH in % [1]: 100%
- Post-emergence effect at 5 g/ha against ABUTH in % [1]: 100%
- Post-emergence effect at 20 g/ha against ABUTH in % [1]: 100%
- Post-emergence effect at 5 g/ha against ALOMY in % [2]: 80%
- Post-emergence effect at 20 g/ha against ALOMY in % [2]: 100%
- Post-emergence effect at 1.25 g/ha against AMARE in % [3]: 100%
- Post-emergence effect at 5 g/ha against AMARE in % [3]: 100%
- Post-emergence effect at 20 g/ha against AMARE in % [3]: 100%
- Post-emergence effect at 1.25 g/ha against KCHSC in % [4]: 100%
- Post-emergence effect at 5 g/ha against KCHSC in % [4]: 100%
- Post-emergence effect at 20 g/ha against KCHSC in % [4]: 100%
- Post-emergence effect at 5 g/ha against DIGSA in % [5]: 100%
- Post-emergence effect at 20 g/ha against DIGSA in % [5]: 100%
- Post-emergence effect at 5 g/ha against ECHCG in % [6]: 100%
- Post-emergence effect at 20 g/ha against ECHCG in % [6]: 100%
- Post-emergence effect at 20 g/ha against LOLRI in % [7]: 100%
- Post-emergence effect at 1.25 g/ha against PHBPU in % [8]: 80%
- Post-emergence effect at 5 g/ha against PHBPU in % [8]: 100%
- Post-emergence effect at 20 g/ha against PHBPU in % [8]: 100%
- Post-emergence effect at 5 g/ha against POLCO in % [9]: 100%
- Post-emergence effect at 20 g/ha against POLCO in % [9]: 100%
- Post-emergence effect at 1.25 g/ha against SETVI in % [10]: 100%
- Post-emergence effect at 5 g/ha against SETVI in % [10]: 100%
- Post-emergence effect at 20 g/ha against SETVI in % [10]: 100%
- Post-emergence effect at 5 g/ha against MATIN in % ([11]; 5 g/ha): 100%
- Post-emergence effect at 20 g/ha against MATIN in % [11]: 100%
- Post-emergence effect at 1.25 g/ha against VERPE in % [12]: 100%
- Post-emergence effect at 5 g/ha against VERPE in % [12]: 100%
- Post-emergence effect at 20 g/ha against VERPE in % [12]: 100%
- Post-emergence effect at 1.25 g/ha against VIOTR in % [13]: 100%
- Post-emergence effect at 5 g/ha against VIOTR in % [13]: 100%
- Post-emergence effect at 20 g/ha against VIOTR in % [13]: 100%
- Post-emergence effect at 1.25 g/ha against TRZAS in % [14]: 20%
